In ChEMBL document CHEMBL4825678, “Oshimalides A and B, Sesterterpenes of the Manoalide Class from a Luffariella sp. Deep-Sea Marine Sponge: Application of Asymmetric Dihydroxylation in Structure Elucidation” (2021):
Values after ≈ are worked out from the molar mass of the structure shown.

System: Staphylococcus aureus
Experiment: Antimicrobial activity against staphylococcus aureus 209P JC-1 incubated for 20 hrs by agar dilution method
Type: functional

`CC1=CC(=O)C[C@@H](C)[C@@]1(C)CC/C(C)=C/CCC1=CC[C@H](C2=CC(=O)OC2)OC1` gave an MIC of 51 µg/mL (≈ 128 µM).
